According to patent EP0561850B1, “7-SUBSTITUTED-6-FLUORO-1,4-DIHYDRO-4-OXO-QUINOLINE-3-CARBOXYLIC ACID COMPOUNDS USEFUL AS ANTIBACTERIAL AGENTS” (priority 1990, dated 1992):
In brackets after ≈: the same amount, converted by molar mass. Read-outs that look alike come from different tables or passages of the source.

Experiments:
Test in all cases: Microbroth dilution (MHB) method, NCCLS M7-A2
Sa 127M = type: cell-based, Staphylococcus aureus; conditions: inoculum 5 x 10^5 cfu/ml, 35 °C/18 hr
Method: (§1) The test organisms were obtained from ATCC and clinical laboratories. The 96-well microtitre plates containing […] of serially diluted test compounds in Mueller Hinton Broth (MHB) (conc. range 64-0.03 µg/ml) were inoculated with […] of bacterial suspension in MHB so that an inoculum size of 5 x 10^5 cfu/ml was achieved.
(§2) EC. (S- 63): Eschericia coli Ecl. (S- 130): Enterobacter cloacae Pa. (S- 67): Pseudomonas aeruginosa Kp. (S- 80): Klebsiella pneumoniae Pr.
(§3) Microbroth Dilution (MHB) method; Inoculum, 5 x 10^5 cfu/ml; Incubation 35 °C/18 hr

[1] = tested on: Enterobacter cloacae S-130; type: cell-based; conditions: 35 °C/18 hr
Method: as §1, §2, §3

[2] = tested on: Pseudomonas aeruginosa S-67; type: cell-based; conditions: Pa S-67, MHB, inoculum 5 x 10^5 cfu/ml, 35 °C/18 hr
Method: as §1, §2, §3

[3] = tested on: Providencia rettgeri S-121; type: cell-based; conditions: 35 °C/18 hr
Method: as §1, §2, §3

[4] = tested on: Staphylococcus aureus S-127; type: cell-based; conditions: 35 °C/18 hr
Method: as §1, §2, §3

[5] = tested on: Klebsiella pneumoniae S-80; type: cell-based; conditions: Kp S-80, MHB, inoculum 5 x 10^5 cfu/ml, 35 °C/18 hr
Method: as §1, §2, §3

Eschericia coli S-63 = type: cell-based; conditions: Ec S-63, inoculum 5 x 10^5 cfu/ml, 35 °C/18 hr
Method: as §1, §2, §3

[6] = Ecl S-130, inoculum 5 x 10^5 cfu/ml
[7] = Pr S-121, inoculum 5 x 10^5 cfu/ml
[8] = Sa S-127, inoculum 5 x 10^5 cfu/ml
[9] = Staphylococcus aureus, read-out: MIC
[10] = Enterobacter cloacae, S130, Ecl S-130, inoculum 5 x 10^5 cfu/ml, read-out: MIC
[11] = Pseudomonas aeruginosa, S67, read-out: MIC
[12] = Providencia rettgeri, S121, Pr S-121, inoculum 5 x 10^5 cfu/ml, read-out: MIC
[13] = Staphylococcus aureus, S127, Sa S-127, inoculum 5 x 10^5 cfu/ml, read-out: MIC
[14] = Klebsiella pneumoniae, S80, read-out: MIC

Norfloxacin - choline salt [MFLX-, reference compound]
MIC (Sa 127M): 16 µg/mL
MIC [1, 6]: .25 µg/mL
MIC [2]: 1 µg/mL
MIC [3, 7]: .12 µg/mL
MIC [4, 8]: 2 µg/mL
MIC [5]: .25 µg/mL
MIC (Eschericia coli S-63): .06 µg/mL

O=C(O)c1cn(C2CC2)c2c(F)c(N3CCC(n4ccnn4)C3)c(F)c(F)c2c1=O (stereo not drawn) [Example 49, 1-cyclopropyl-5,6,8-trifluoro-7-[3-(1,2,3-triazol-1-yl)-pyrrolidin-1-yl]-1,4-dihydro-4-oxo-quinoline-3-carboxylic acid]
MIC (Sa 127M; [9]): 0.25 µg/mL (≈ 0.596 µM)
MIC [1, 10]: 0.5 µg/mL (≈ 1.19 µM)
MIC [2, 11]: 8 µg/mL (≈ 19.1 µM)
MIC [3, 12]: 0.12 µg/mL (≈ 0.286 µM)
MIC [4, 13]: 0.25 µg/mL (≈ 0.596 µM)
MIC [5, 14]: 0.5 µg/mL (≈ 1.19 µM)
MIC (Eschericia coli S-63; read-out: MIC): 0.5 µg/mL (≈ 1.19 µM)

COc1c(N2CCC(n3cc(C)nn3)C2)c(F)cc2c(=O)c(C(=O)O)cn(C3CC3)c12 (stereo not drawn) [Example 33]
MIC (Sa 127M; [9]): ≤ 0.015 µg/mL
MIC [1, 10]: 1 µg/mL (≈ 2.34 µM)
MIC [2, 11]: 8 µg/mL (≈ 18.7 µM)
MIC [3, 12]: 2 µg/mL (≈ 4.68 µM)
MIC [4, 13]: ≤ 0.015 µg/mL
MIC [5, 14]: 1 µg/mL (≈ 2.34 µM)
MIC (Eschericia coli S-63; read-out: MIC): 0.12 µg/mL (≈ 0.281 µM)

Cc1cn(C2CCN(c3c(F)c(C)c4c(=O)c(C(=O)O)cn(C5CC5)c4c3F)C2)nn1 (stereo not drawn) [Example 21, 1-Cyclopropyl-6,8-difluoro-5-methyl-7-[3-(4-methyl-1,2,3-triazol-1-yl)pyrrolidin-1-yl]-1,4-dihydro-4-oxo-quinoline-3-carboxylic acid]
MIC (Sa 127M; [9]): 0.015 µg/mL (≈ 0.0349 µM)
MIC [1, 10]: 0.25 µg/mL (≈ 0.582 µM)
MIC [2, 11]: 2 µg/mL (≈ 4.66 µM)
MIC [3, 12]: 0.12 µg/mL (≈ 0.279 µM)
MIC [4, 13]: 0.015 µg/mL (≈ 0.0349 µM)
MIC [5, 14]: 0.25 µg/mL (≈ 0.582 µM)
MIC (Eschericia coli S-63; read-out: MIC): 0.06 µg/mL (≈ 0.14 µM)

Cc1cn(C2CCN(c3c(F)c(N)c4c(=O)c(C(=O)O)cn(C5CC5)c4c3F)C2)nn1 (stereo not drawn) [Example 25, 5-Amino-1-cyclopropyl-6,8-difluoro-7-[3-(4-methyl-1,2,3-triazol-1-yl)pyrrolidin-1-yl]-1,4-dihydro-4-oxo-quinoline-3-carboxylic acid]
MIC (Sa 127M; [9]): 0.03 µg/mL (≈ 0.0697 µM)
MIC [1, 10]: 0.25 µg/mL (≈ 0.581 µM)
MIC [2, 11]: 2 µg/mL (≈ 4.65 µM)
MIC [3, 12]: 0.25 µg/mL (≈ 0.581 µM)
MIC [4, 13]: ≤ 0.015 µg/mL
MIC [5, 14]: 0.25 µg/mL (≈ 0.581 µM)
MIC (Eschericia coli S-63; read-out: MIC): 0.06 µg/mL (≈ 0.139 µM)

Nc1c(F)c(N2CCC(n3cc(-c4ccccc4)nn3)C2)c(F)c2c1c(=O)c(C(=O)O)cn2C1CC1 (stereo not drawn) [Example 47, 5-amino-1-cyclopropyl-6,8-difluoro-7-[3-(4-phenyl-1,2,3-triazol-1-yl)-pyrrolidin-1-yl]-1,4-dihydro-4-oxo-quinoline-3-carboxylic acid]
MIC (Sa 127M; [9]): 0.015 µg/mL (≈ 0.0305 µM)
MIC [1, 10]: 16 µg/mL (≈ 32.5 µM)
MIC [2, 11]: > 32 µg/mL
MIC [3, 12]: 0.015 µg/mL (≈ 0.0305 µM)
MIC [4, 13]: 0.015 µg/mL (≈ 0.0305 µM)
MIC [5, 14]: 0.5 µg/mL (≈ 1.02 µM)
MIC (Eschericia coli S-63; read-out: MIC): 0.25 µg/mL (≈ 0.508 µM)

N,N,N-Trimethyl-N-(2-hydroxyethyl) ammonium 1- cyclopropyl-6,8-difluoro-7-[3-(4-methyl-1,2,3-triazol-1-yl)pyrrolidin-1-yl]-1,4-dihydro-4-oxo-quinoline-3-carboxylate [Example 35]
MIC (Sa 127M): .03 µg/mL
MIC [1, 6]: .5 µg/mL
MIC [2]: 4 µg/mL
MIC [3, 7]: .25 µg/mL
MIC [4, 8]: ≤.015 µg/mL
MIC [5]: .25 µg/mL
MIC (Eschericia coli S-63): .25 µg/mL

Cc1c(F)c(N2CCC(n3cncn3)C2)c(F)c2c1c(=O)c(C(=O)O)cn2C1CC1 (stereo not drawn) [Example 23, 1-Cyclopropyl-6,8-difluoro-5-methyl-7-[3-(1,2,4-triazol-1-yl)pyrrolidin-1-yl]-1,4-dihydro-4-oxo-quinoline-3-carboxylic acid]
MIC (Sa 127M; [9]): ≤ 0.015 µg/mL
MIC [1, 10]: 0.25 µg/mL (≈ 0.602 µM)
MIC [2, 11]: 4 µg/mL (≈ 9.63 µM)
MIC [3, 12]: 0.5 µg/mL (≈ 1.2 µM)
MIC [4, 13]: ≤ 0.015 µg/mL
MIC [5, 14]: 0.5 µg/mL (≈ 1.2 µM)
MIC (Eschericia coli S-63; read-out: MIC): 0.12 µg/mL (≈ 0.289 µM)

C[C@H]1COc2c(N3CCC(n4ccnn4)C3)c(F)cc3c(=O)c(C(=O)O)cn1c23 (single isomer, unassigned; (-)) [Example 38]
MIC (Sa 127M; [9]): 0.5 µg/mL (≈ 1.25 µM)
MIC [1, 10]: 1 µg/mL (≈ 2.5 µM)
MIC [2, 11]: 8 µg/mL (≈ 20 µM)
MIC [3, 12]: 1 µg/mL (≈ 2.5 µM)
MIC [4, 13]: 0.12 µg/mL (≈ 0.3 µM)
MIC [5, 14]: 1 µg/mL (≈ 2.5 µM)
MIC (Eschericia coli S-63; read-out: MIC): 0.25 µg/mL (≈ 0.626 µM)

N,N,N-Trimethyl-N-(2-hydroxyethyl)ammonium-1-cyclopropyl-6,8-difluoro-7-[3-(1,2,4-triazol-1-yl)pyrrolidin-1-yl]-1,4-dihydro-4-oxo-quinoline-3-carboxylate [Example 37]
MIC (Sa 127M): .25 µg/mL
MIC [1, 6]: 2 µg/mL
MIC [2]: 8 µg/mL
MIC [3, 7]: 1 µg/mL
MIC [4, 8]: .06 µg/mL
MIC [5]: 1 µg/mL
MIC (Eschericia coli S-63): .5 µg/mL

C[C@H]1COc2c(N3CCC(n4cncn4)C3)c(F)cc3c(=O)c(C(=O)O)cn1c23 (single isomer, unassigned; (-)) [Example 40]
MIC (Sa 127M; [9]): 0.5 µg/mL (≈ 1.25 µM)
MIC [1, 10]: 1 µg/mL (≈ 2.5 µM)
MIC [2, 11]: 8 µg/mL (≈ 20 µM)
MIC [3, 12]: 0.5 µg/mL (≈ 1.25 µM)
MIC [4, 13]: 1 µg/mL (≈ 2.5 µM)
MIC [5, 14]: 1 µg/mL (≈ 2.5 µM)
MIC (Eschericia coli S-63; read-out: MIC): 1 µg/mL (≈ 2.5 µM)

Cc1cnnn1C1CCN(c2c(F)cc3c(=O)c(C(=O)O)cn(C4CC4)c3c2F)C1 (stereo not drawn) [Example 22, 1-Cyclopropyl-6,8-difluoro-7-[3-(5-methyl-1,2,3-triazol-1-yl)pyrrolidin-1-yl]-1,4-dihydro-4-oxo-quinoline-3-carboxylic acid]
MIC (Sa 127M; [9]): 0.12 µg/mL (≈ 0.289 µM)
MIC [1, 10]: 0.25 µg/mL (≈ 0.602 µM)
MIC [2, 11]: 4 µg/mL (≈ 9.63 µM)
MIC [3, 12]: 0.25 µg/mL (≈ 0.602 µM)
MIC [4, 13]: ≤ 0.015 µg/mL
MIC [5, 14]: 0.5 µg/mL (≈ 1.2 µM)
MIC (Eschericia coli S-63; read-out: MIC): 0.25 µg/mL (≈ 0.602 µM)

Cc1cn(C2CCN(c3c(F)cc4c(=O)c(C(=O)O)cn(C5CC5)c4c3F)C2)nn1 (stereo not drawn) [Example 27, 1-Cyclopropyl-6,8-difluoro-7-[3-(4-methyl-1,2,3-triazol-1-yl)pyrrolidin-1-yl]-1,4-dihydro-4-oxo-quinoline-3-carboxylic acid]
MIC (Sa 127M; [9]): 0.25 µg/mL (≈ 0.602 µM)
MIC [1, 10]: 1 µg/mL (≈ 2.41 µM)
MIC [2, 11]: 4 µg/mL (≈ 9.63 µM)
MIC [3, 12]: 2 µg/mL (≈ 4.81 µM)
MIC [4, 13]: 0.125 µg/mL (≈ 0.301 µM)
MIC [5, 14]: 0.5 µg/mL (≈ 1.2 µM)
MIC (Eschericia coli S-63; read-out: MIC): 0.25 µg/mL (≈ 0.602 µM)

Cc1nnn(C2CCN(c3c(F)cc4c(=O)c(C(=O)O)cn(C5CC5)c4c3F)C2)c1C (stereo not drawn) [Example 26, 1-Cyclopropyl-6,8-difluoro-7[3-(4,5-dimethyl-1,2,3-triazol-1-yl)pyrrolidin-1-yl]-1,4-dihydro-4-oxo-quinoline-3-carboxylic acid]
MIC (Sa 127M; [9]): 0.06 µg/mL (≈ 0.14 µM)
MIC [1, 10]: 2 µg/mL (≈ 4.66 µM)
MIC [2, 11]: 8 µg/mL (≈ 18.6 µM)
MIC [3, 12]: 1 µg/mL (≈ 2.33 µM)
MIC [4, 13]: 0.03 µg/mL (≈ 0.0699 µM)
MIC [5, 14]: 1 µg/mL (≈ 2.33 µM)
MIC (Eschericia coli S-63; read-out: MIC): 0.25 µg/mL (≈ 0.582 µM)

O=C(O)c1cn(C2CC2)c2c(F)c(N3CCC(n4ccnn4)C3)c(F)c(O)c2c1=O (stereo not drawn) [Example 50, 1-Cyclopropyl-5-hydroxy-6,8-difluoro-7-[-3-(1,2,3-triazol-1-yl)-pyrrolidin-1-yl]-1,4-dihydro-4-oxo-quinoline-3-carboxylic acid]
MIC (Sa 127M; [9]): 0.25 µg/mL (≈ 0.599 µM)
MIC [1, 10]: 2 µg/mL (≈ 4.79 µM)
MIC [2, 11]: 16 µg/mL (≈ 38.3 µM)
MIC [3, 12]: 0.06 µg/mL (≈ 0.144 µM)
MIC [4, 13]: 0.25 µg/mL (≈ 0.599 µM)
MIC [5, 14]: 1 µg/mL (≈ 2.4 µM)
MIC (Eschericia coli S-63; read-out: MIC): 1 µg/mL (≈ 2.4 µM)
